Laboratory results as given in ChEMBL document CHEMBL1201862, “PubChem BioAssay data set” (2004).
Values belong to the molecule of their own block, whether it stands above or below them. Activity calls are given as the source filed them.

Assays:
Melanocortin receptor 4 = Melanocortin receptor 4 (Homo sapiens, UniProt P32245); format: functional, cell-based;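 further: Cell-based assay with luminescence read-out, confirmatory dose-response testing for agonist activity of biased ligands at MC4R; human U2OS cells with tagged receptor and beta-arrestin; potency of agonists that increase receptor coupling to beta-arrestin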
Melanocortin receptor 4, sequence (P32245 whole entry): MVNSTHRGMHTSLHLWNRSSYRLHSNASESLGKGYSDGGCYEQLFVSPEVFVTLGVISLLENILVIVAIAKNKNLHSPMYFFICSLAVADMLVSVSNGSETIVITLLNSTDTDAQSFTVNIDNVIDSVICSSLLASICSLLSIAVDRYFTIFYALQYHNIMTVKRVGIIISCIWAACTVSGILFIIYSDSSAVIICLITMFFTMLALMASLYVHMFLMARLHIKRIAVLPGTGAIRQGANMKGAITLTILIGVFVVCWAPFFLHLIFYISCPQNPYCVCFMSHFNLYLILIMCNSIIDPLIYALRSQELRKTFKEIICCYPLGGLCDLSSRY

[1] = activation of miR-122 Renilla sensor silencing – cell-based, Huh7 psiCHECK-miR122, Renilla luciferase, cherry-picked, dose response (AID 651956); format: functional;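 further: huh7 hepatoma cells stably carrying a psiCHECK-2 miR-122 sensor plasmid; renilla luciferase signal reporting endogenous miR-122 activity after 48 h compound exposure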
[2] = general mammalian cell viability loss – activator set, cherry-pick, cytotoxicity control for miR-122 modulator project, dose response (AID 720690); format: functional, cell-based;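 further: HEK293T human cells scored for general mammalian cytotoxicity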
fMet-Leu-Phe receptor = molecular target: T1, fMet-Leu-Phe receptor (Homo sapiens, UniProt P21462); assay: formyl peptide receptor binders – dose response (AID 519); format: functional
T1 sequence (P21462 whole entry): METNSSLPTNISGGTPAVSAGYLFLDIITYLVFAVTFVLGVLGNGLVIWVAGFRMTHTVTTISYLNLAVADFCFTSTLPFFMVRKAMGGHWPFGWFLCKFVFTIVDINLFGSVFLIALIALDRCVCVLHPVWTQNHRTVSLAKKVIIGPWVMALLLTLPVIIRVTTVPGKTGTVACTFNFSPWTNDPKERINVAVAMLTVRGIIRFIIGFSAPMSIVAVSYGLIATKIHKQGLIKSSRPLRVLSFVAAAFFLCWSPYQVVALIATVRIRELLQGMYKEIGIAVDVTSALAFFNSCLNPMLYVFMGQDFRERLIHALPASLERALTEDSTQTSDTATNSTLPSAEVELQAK

[3] = toxicity toward HepG2 liver cells – cell-based, plate reader, cherry-pick, antagonist series, cytotoxicity control, dose response (AID 743416); format: functional
[4] = blockers of bursicon-stimulated LGR2 cAMP reporter – cell-based, HEK293, CRE-luciferase reporter, cherry pick, set 2, dose response (AID 743343); format: functional;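 further: transfected cells were stimulated with diluted bursicon conditioned medium after compound addition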
[5] = blockade of melanocortin 4 receptor signaling – cell-based, plate reader, cherry pick, counter-screen for LGR2 antagonist project, dose response (AID 743444); format: functional;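 further: transfected HEK 293 cells stimulated with alpha-MSH peptide; potency of inhibitors of the alpha-MSH evoked signal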
[6] = A549 cell cytotoxicity, dose response, cytotoxicity control, plate reader, cherry-pick, antagonist series (AID 743412); format: functional, cell-based
[7] = viability loss in HEK293 cells – cell-based, plate reader, cherry-picked samples, cytotoxicity control, dose response (AID 743446); format: functional
[8] = reduced cellular PGC1a acetyl-lysine signal – cell-based, cherry-picked samples, dose response (AID 720514); format: functional;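 further: potency may reflect raised or lowered acetylation signal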
[9] = toxicity to human hepatoma HepG2 cells – cell-based, cherry-picked samples, cytotoxicity control, dose response (AID 1159577); format: functional
[10] = P. falciparum Dd2 growth inhibitors, dose response, SYBR Green, cherry-picked samples (AID 1159567); format: functional, cell-based
[11] = growth inhibition of yeast DHODH-expressing 3D7 parasites – SYBR Green, dry powder samples, dose response (AID 1159570); format: functional, cell-based;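 further: parasite growth measured after 72 hours of compound exposure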
[12] = Dd2 malaria parasite growth inhibition potency – SYBR Green, dry powder samples, dose response (AID 1159566); format: functional, cell-based;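 further: potency for growth inhibition with lower SYBR green DNA signal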
[13] = toxicity to human HepG2 hepatoma cells – cell-based, plate reader, dry powder samples, cytotoxicity control, dose response (AID 1159569); format: functional;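 further: inhibitor potency with signal falling toward the positive control level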
[14] = growth inhibition of PfATP4-mutant resistant parasites – NITD609-resistant line, SYBR Green, dry powder, dose response (AID 1159571); format: functional, cell-based;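 further: parasites synchronized at ring stage by sorbitol before testing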

EC50 (Melanocortin receptor 4): > 89.3 µM (inactive)
SMILES: CC(/C=C/C=C/c1ccccc1)=N/NC(=O)CNc1ccccc1C

SMILES: C[C@@H]1CN([C@H](C)CO)S(=O)(=O)c2ccc(C#Cc3ccccc3F)cc2O[C@@H]1CN(C)C(=O)c1ccc2c(c1)OCO2
AC50 [1]: 4.28 µM (active)
AC50 [2]: 20.6 µM (active)

Ki (fMet-Leu-Phe receptor): 36.4 µM (inactive)
SMILES: O=C(NCc1cccnc1)C1c2ccccc2C(=O)N1C1CCCCCC1 (centres undefined)

SMILES: C[C@@H]1CN([C@@H](C)CO)S(=O)(=O)c2ccc(C#Cc3ccncc3)cc2O[C@@H]1CN(C)C(=O)C1CCOCC1
AC50 [1]: 0.466 µM (active)

SMILES: CN1C(=O)c2cc(NC(=O)c3ccc(Cl)cc3)ccc2OC[C@@H]2O[C@H](CC(=O)NCc3cccc(F)c3)CC[C@@H]21
AC50 [2]: 26.6 µM (active)

SMILES: N#C[C@H]1[C@H](c2ccccc2C2=CCCCC2)[C@@H](CO)N1S(=O)(=O)c1ccccc1
AC50 [3]: 4.61 µM (active)
AC50 [4]: 7.76 µM (active)
AC50 [5]: 2.67 µM (active)
AC50 [6]: 7.94 µM (active)
AC50 [7]: 13.9 µM (active)

SMILES: CCC(=O)N(C)C[C@@H]1Oc2ncc(C#CCc3ccccc3)cc2C(=O)N([C@H](C)CO)C[C@@H]1C
AC50 [8]: 16.4 µM (active)

SMILES: Cc1ccc(-c2ccc([C@H]3[C@@H]4CN(C(=O)Nc5ccc(C(F)(F)F)cc5)C[C@H]3N4)cc2)cc1
AC50 [9]: 13.1 µM (active)
AC50 [8]: 9.39 µM (active)
AC50 [10]: 3.4 µM (active)

SMILES: C(=C\c1ccc([C@@H]2[C@@H]3CN(Cc4cccnc4)C[C@H]2N3)cc1)/c1ccccc1
AC50 [9]: 10.8 µM (active)
AC50 [10]: < 0.3 µM (active)

SMILES: O=C(Nc1ccccc1F)N1CCCCN2[C@@H](CO)[C@H](c3ccc(C#Cc4ccccc4)cc3)[C@@H]2C1
AC50 [9]: 10.3 µM (active)
AC50 [10]: 0.392 µM (active)

SMILES: O=C(C1CCCC1)N1CC(=O)N2[C@H](C1)[C@@H](c1ccc(-c3cccnc3)cc1)[C@@H]2CO
AC50 [11]: 2.97 µM (active)
AC50 [12]: 0.746 µM (active)
AC50 [13]: > 100 µM (inactive)
AC50 [14]: 1.52 µM (active)
AC50 [10]: 1.06 µM (active)

SMILES: CCCN(C)C[C@@H]1Oc2cc(C#Cc3cccnc3)ccc2S(=O)(=O)N([C@H](C)CO)C[C@@H]1C
AC50 [11]: 2.35 µM (active)
AC50 [12]: 1.45 µM (active)
AC50 [13]: > 100 µM (inactive)
AC50 [14]: 1.03 µM (active)
AC50 [10]: 2.09 µM (active)
